For 23 compounds, Ki and IC50 results are on record in patent US10829481B2, “Benzimidazole derivatives as modulators of ROR-gamma” (Vitae Pharmaceuticals, LLC, priority 2016, dated 2020).

Assay [1] has as its target recombinant RORγ Ligand Binding Domain (LBD) protein (Homo sapiens (Human), UniProt P51449). Briefly: Radio-Ligand RORγ Binding Assay (Assay 1). The settings on record: competition with 25-hydroxy [26,27-3H]-cholesterol, SPA. In outline: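 Scintillation proximity competition against 25-hydroxy [26,27-^3H]-cholesterol (8.6 nM solution) for 6×His-GST-tagged RORγ LBD (24 nM solution) in HEPES pH 7.4 with CHAPS, β-octylglucopyranoside and DTT; semi-log compound dilutions, ~1 h total at rt with poly-Lys YSi beads. IC50 from four-parameter fit; Ki derived from [RL] and radioligand KD.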

Assay [2] deals with full-length RORγt in Jurkat cells (Homo sapiens (Human), UniProt P51449). Nature of the assay: RORγt 5×RORE Assay in Jurkat Cells (Assay 2). The class given is cell-based. The settings on record: 5×RORE Nanoluc luciferase reporter.
Chain of full-length RORγt in Jurkat cells (P51449 other isoform, or with tags, fused parts or gaps): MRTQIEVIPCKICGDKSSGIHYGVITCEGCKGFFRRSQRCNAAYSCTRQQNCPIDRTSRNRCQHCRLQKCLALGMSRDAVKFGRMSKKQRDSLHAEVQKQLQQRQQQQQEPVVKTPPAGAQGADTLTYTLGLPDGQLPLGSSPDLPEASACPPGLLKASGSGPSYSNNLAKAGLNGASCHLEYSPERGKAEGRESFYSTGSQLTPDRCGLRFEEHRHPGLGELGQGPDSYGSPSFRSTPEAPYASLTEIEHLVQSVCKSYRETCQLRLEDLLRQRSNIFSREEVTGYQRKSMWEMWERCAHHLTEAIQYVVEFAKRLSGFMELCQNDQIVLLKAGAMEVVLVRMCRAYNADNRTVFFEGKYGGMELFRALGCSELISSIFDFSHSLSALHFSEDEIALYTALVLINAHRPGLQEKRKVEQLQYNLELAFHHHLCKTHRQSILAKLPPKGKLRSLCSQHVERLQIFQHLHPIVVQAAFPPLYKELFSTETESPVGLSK

Some results are limits rather than exact numbers.

Chain of recombinant RORγ Ligand Binding Domain (LBD) protein (P51449 269-508): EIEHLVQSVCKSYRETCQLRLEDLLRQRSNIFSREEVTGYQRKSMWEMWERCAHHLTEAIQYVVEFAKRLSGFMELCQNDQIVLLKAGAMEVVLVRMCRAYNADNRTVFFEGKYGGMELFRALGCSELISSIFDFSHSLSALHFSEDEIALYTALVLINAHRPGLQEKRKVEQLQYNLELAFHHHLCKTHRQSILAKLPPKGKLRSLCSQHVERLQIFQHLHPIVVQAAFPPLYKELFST

Take `O=C(O)CC1CCC(CNC(=O)c2ccc3c(c2)nc(C(F)(F)F)n3Cc2cccc3c2OC(F)(F)O3)CC1` (stereo not shown) [I-120, 2-(4-((1-((2,2-difluorobenzo[d][1,3]dioxol-4-yl)methyl)-2-(trifluoromethyl)-1H-benzo[d]imidazole-5-carboxamido)methyl)cyclohexyl)acetic acid]: the inhibitory constant (Ki) (usually a dissociation constant, usually derived from enzyme kinetics or from competition with a known ligand) in assay [1] is under 100 nM. Besides, the IC50 (in general, the point on the concentration scale where inhibition reaches its midpoint) in assay [2] fell in the range of 100 to 1000 nM.
As for `COC(=O)C(NC(=O)c1ccc2c(c1)nc(C(F)(F)F)n2Cc1cccc2c1OC(F)(F)O2)C1CCN(S(C)(=O)=O)CC1` (stereo not shown) [I-76, methyl 2-(1-((2,2-difluorobenzo[d][1,3]dioxol-4-yl)methyl)-2-(trifluoromethyl)-1H-benzo[d]imidazole-5-carboxamido)-2-(1-(methylsulfonyl)piperidin-4-yl)acetate], in assay [1], the inhibitory constant (Ki) is under 100 nM. Further, the IC50 in assay [2] is under 100 nM.
Regarding `CCS(=O)(=O)c1ccc([C@H](CO)NC(=O)c2ccc3c(c2)nc(C2CCC2)n3Cc2cccc3c2OC(F)(F)O3)nc1` [I-132.1, (R)-2-cyclobutyl-1-((2,2-difluorobenzo[d][1,3]dioxol-4-yl)methyl)-N-(1-(5-(ethylsulfonyl)pyridin-2-yl)-2-hydroxyethyl)-1H-benzo[d]imidazole-5-carboxamide], the inhibition constant (Ki) in assay [1] is under 100 nM. The IC50 in assay [2] is under 100 nM.
Take `CCS(=O)(=O)c1ccc(CNC(=O)c2ccc3c(c2)nc(C(F)(F)F)n3Cc2ccc(OC)c(C#N)c2)cc1` [I-83, 1-(3-cyano-4-methoxybenzyl)-N-(4-(ethylsulfonyl)benzyl)-2-(trifluoromethyl)-1H-benzo[d]imidazole-5-carboxamide]: the Ki in assay [1] was under 100 nM. In assay [2], this compound had a 50% inhibitory concentration (IC50) of 100 to 1000 nM.
As for `CCS(=O)(=O)c1ccc(CNC(=O)c2ccc3c(c2)nc([C@@H]2C[C@H]2C#N)n3Cc2cccc3c2OC(F)(F)O3)cc1` [I-57, 2-((1R,2R)-2-cyanocyclopropyl)-1-((2,2-difluorobenzo[d][1,3]dioxol-4-yl)methyl)-N-(4-(ethylsulfonyl)benzyl)-1H-benzo[d]imidazole-5-carboxamide], the Ki in assay [1] was under 100 nM. The IC50 in assay [2] is under 100 nM.
Take `CCS(=O)(=O)c1ccc([C@@H](CO)NC(=O)c2ccc3c(c2)nc(C2(F)CC2)n3Cc2cccc3c2OC(F)(F)O3)nc1` [I-134.2, (S)-1-((2,2-difluorobenzo[d][1,3]dioxol-4-yl)methyl)-N-(1-(5-(ethylsulfonyl)pyridin-2-yl)-2-hydroxyethyl)-2-(1-fluorocyclopropyl)-1H-benzo[d]imidazole-5-carboxamide]: in assay [1], the inhibition constant Ki was under 100 nM. Further, in assay [2], the IC50 is under 100 nM.
Regarding `COCCS(=O)(=O)c1ccc(CC(=O)Nc2ccc3c(c2)nc(C(F)(F)F)n3Cc2cccc3c2OC(F)(F)O3)cc1` [I-4, N-(1-((2,2-difluorobenzo[d][1,3]dioxol-4-yl)methyl)-2-(trifluoromethyl)-1H-benzo[d]imidazol-5-yl)-2-(4-((2-methoxyethyl)sulfonyl)phenyl)acetamide], the Ki in assay [1] was under 100 nM. The same compound gave a half-inhibitory concentration (IC50) in assay [2] of under 100 nM.
Consider `N#Cc1ccc(CC(=O)Nc2ccc3c(c2)nc(C(F)(F)F)n3Cc2cccc3c2OC(F)(F)O3)cc1` [I-6, 2-(4-cyanophenyl)-N-(1-((2,2-difluorobenzo[d][1,3]dioxol-4-yl)methyl)-2-(trifluoromethyl)-1H-benzo[d]imidazol-5-yl)acetamide], for which the inhibition constant (Ki) in assay [1] was under 100 nM. The compound also had an IC50 in assay [2] of over 1000 nM.
For the compound `CCS(=O)(=O)c1ccc(C(O)C(=O)Nc2ccc3c(c2)nc(C(F)(F)F)n3Cc2cccc3c2OC(F)(F)O3)cc1` (stereo not shown) [I-170, N-(1-((2,2-difluorobenzo[d][1,3]dioxol-4-yl)methyl)-2-(trifluoromethyl)-1H-benzo[d]imidazol-5-yl)-2-(4-(ethylsulfonyl)phenyl)-2-hydroxyacetamide], the inhibitory constant (Ki) in assay [1] is under 100 nM. In assay [2], the IC50 is under 100 nM.
As for “1-((2,2-difluorobenzo[d][1,3]dioxol-4-yl)methyl)-N-((R)-1-(4-(ethylsulfonyl)phenyl)-2-hydroxyethyl)-2-((R)-tetrahydrofuran-2-yl)-1H-benzo[d]imidazole-5-carboxamide [I-15]”, in assay [1], the Ki was under 100 nM. For the same compound, in assay [2], the IC50 is under 100 nM.
Consider `CCS(=O)(=O)c1ccc([C@H](COC)NC(=O)c2ccc3c(c2)nc(C(F)(F)F)n3Cc2cccc3c2OC(F)(F)O3)nc1` [I-62, (R)-1-((2,2-difluorobenzo[d][1,3]dioxol-4-yl)methyl)-N-(1-(5-(ethylsulfonyl)pyridin-2-yl)-2-methoxyethyl)-2-(trifluoromethyl)-1H-benzo[d]imidazole-5-carboxamide], for which the inhibitory constant (Ki) in assay [1] is under 100 nM. In assay [2], this compound came in with an IC50 of under 100 nM.
`CCS(=O)(=O)c1ccc([C@H](CO)NC(=O)c2ccc3c(c2)nc(C(F)(F)F)n3Cc2cccc3c2OC(F)(F)O3)nc1` [I-130.1, (R)-1-((2,2-difluorobenzo[d][1,3]dioxol-4-yl)methyl)-N-(1-(5-(ethylsulfonyl)pyridin-2-yl)-2-hydroxyethyl)-2-(trifluoromethyl)-1H-benzo[d]imidazole-5-carboxamide]: in assay [1], the Ki is under 100 nM. In assay [2], this compound came in with an IC50 of under 100 nM.
For `CCS(=O)(=O)c1ccc(CNC(=O)c2ccc3c(c2)nc(C2CC2)n3[C@@H](C)c2cccc3c2OC(F)(F)O3)cc1` [I-116, (S)-2-cyclopropyl-1-(1-(2,2-difluorobenzo[d][1,3]dioxol-4-yl)ethyl)-N-(4-(ethylsulfonyl)benzyl)-1H-benzo[d]imidazole-5-carboxamide], in assay [1], the inhibition constant Ki is under 100 nM. Also, in assay [2], the concentration for half-maximal inhibition (IC50) is under 100 nM.
Turning to `CS(=O)(=O)c1ccc(CNC(=O)c2ccc3c(c2)nc(C2(F)CC2)n3Cc2cccc3c2OC(F)(F)O3)nc1` [I-68, 1-((2,2-difluorobenzo[d][1,3]dioxol-4-yl)methyl)-2-(1-fluorocyclopropyl)-N-((5-(methylsulfonyl)pyridin-2-yl)methyl)-1H-benzo[d]imidazole-5-carboxamide], the Ki in assay [1] is under 100 nM. The concentration for half-maximal inhibition (IC50) in assay [2] was under 100 nM.
Consider `CCS(=O)(=O)c1ccc(CNC(=O)c2ccc3c(c2)nc(C(F)(F)F)n3Cc2cncc3[nH]ccc23)cc1` [I-100, 1-((1H-pyrrolo[2,3-c]pyridin-4-yl)methyl)-N-(4-(ethylsulfonyl)benzyl)-2-(trifluoromethyl)-1H-benzo[d]imidazole-5-carboxamide], for which the inhibitory constant (Ki) in assay [1] was under 100 nM. Besides, the IC50 in assay [2] lay in the range of 100 to 1000 nM.
In the case of `CCS(=O)(=O)c1ccc([C@H](CO)NC(=O)c2ccc3c(c2)nc(C2(F)CC2)n3Cc2cccc3c2OC(F)(F)O3)cc1` [I-18, (R)-1-((2,2-difluorobenzo[d][1,3]dioxol-4-yl)methyl)-N-(1-(4-(ethylsulfonyl)phenyl)-2-hydroxyethyl)-2-(1-fluorocyclopropyl)-1H-benzo[d]imidazole-5-carboxamide], in assay [1], the inhibitory constant (Ki) is under 100 nM. The compound further came in with an IC50 in assay [2] of under 100 nM.
Take `CCS(=O)(=O)c1ccc(CNC(=O)c2ccc3c(c2)nc(C(F)(F)F)n3Cc2cccc3cn(C)nc23)cc1` [I-139, N-(4-(ethylsulfonyl)benzyl)-1-((2-methyl-2H-indazol-7-yl)methyl)-2-(trifluoromethyl)-1H-benzo[d]imidazole-5-carboxamide]: the Ki in assay [1] was under 100 nM. The same compound had an IC50 in assay [2] of under 100 nM.
Take `CS(=O)(=O)c1ccc(CNC(=O)c2ccc3c(c2)nc(C2(F)CC2)n3Cc2cccc3c2OC(F)(F)O3)cc1` [I-40, 1-((2,2-difluorobenzo[d][1,3]dioxol-4-yl)methyl)-2-(1-fluorocyclopropyl)-N-(4-(methylsulfonyl)benzyl)-1H-benzo[d]imidazole-5-carboxamide]: the inhibition constant Ki in assay [1] is under 100 nM. The IC50 in assay [2] was under 100 nM.
As for `CCS(=O)(=O)c1ccc([C@H](CO)NC(=O)c2ccc3c(c2)nc(C(F)F)n3Cc2cccc3c2OC(F)(F)O3)nc1` [I-131.1, (R)-1-((2,2-difluorobenzo[d][1,3]dioxol-4-yl)methyl)-2-(difluoromethyl)-N-(1-(5-(ethylsulfonyl)pyridin-2-yl)-2-hydroxyethyl)-1H-benzo[d]imidazole-5-carboxamide], the Ki in assay [1] was under 100 nM. This compound also had a half-inhibitory concentration (IC50) in assay [2] of under 100 nM.
Turning to `CCS(=O)(=O)c1ccc(CNC(=O)c2ccc3c(c2)nc(C2CC2)n3Cc2cccc(OC)c2OC)cc1` [I-119, 2-cyclopropyl-1-(2,3-dimethoxybenzyl)-N-(4-(ethylsulfonyl)benzyl)-1H-benzo[d]imidazole-5-carboxamide], the inhibition constant (Ki) in assay [1] is under 100 nM. The same compound registered an IC50 in assay [2] of under 100 nM.
Turning to `CS(=O)(=O)c1ccc(CNC(=O)c2ccc3c(c2)nc(C2CC2)n3Cc2cccc3c2OC(F)(F)O3)cc1` [I-34, 2-cyclopropyl-1-((2,2-difluorobenzo[d][1,3]dioxol-4-yl)methyl)-N-(4-(methylsulfonyl)benzyl)-1H-benzo[d]imidazole-5-carboxamide], in assay [1], the Ki was under 100 nM. In addition, in assay [2], the 50% inhibitory concentration (IC50) was under 100 nM.
Regarding `O=C(NCC1CCN(S(=O)(=O)CCO)CC1)c1ccc2c(c1)nc(C(F)(F)F)n2Cc1cccc2c1OC(F)(F)O2` [I-163, 1-((2,2-difluorobenzo[d][1,3]dioxol-4-yl)methyl)-N-((1-((2-hydroxyethyl)sulfonyl)piperidin-4-yl)methyl)-2-(trifluoromethyl)-1H-benzo[d]imidazole-5-carboxamide], in assay [1], the Ki is under 100 nM. For the same compound, in assay [2], the IC50 was under 100 nM.
In the case of `COC(=O)CS(=O)(=O)N1CCC(CNC(=O)c2ccc3c(c2)nc(C(F)(F)F)n3Cc2cccc3c2OC(F)(F)O3)CC1` [I-74, methyl 2-((4-((1-((2,2-difluorobenzo[d][1,3]dioxol-4-yl)methyl)-2-(trifluoromethyl)-1H-benzo[d]imidazole-5-carboxamido)methyl)piperidin-1-yl)sulfonyl)acetate], in assay [1], the Ki is under 100 nM. Besides, the IC50 in assay [2] was under 100 nM.
